Structures can show the parent of a compound that is named as a salt. Where two headings read alike, the source gives them in different places.
Experiments:
[1] = molecular target: T1, SARS-CoV-2 PLpro (nsp3 1564–1878) (Severe acute respiratory syndrome coronavirus 2, UniProt P0DTD1); assay: biochemical; set-up: FRET-quenched peptide (Pro3) cleavage by PLpro, 10 min pre-incubation, slope over 20 min, normalised to no-compound control; conditions: low concentration screen
[2] = molecular target: T1, SARS-CoV-2 PLpro (nsp3 1564–1878); assay: biochemical; set-up: FRET-quenched peptide (Pro3) cleavage by PLpro, 10 min pre-incubation, slope over 20 min, normalised to no-compound control; conditions: high concentration screen
[3] = Well no.=6014, read-out: % of control remaining
[4] = Well no.=6149, read-out: % of control remaining
[5] = Well no.=295, read-out: % of control remaining
[6] = Well no.=309, read-out: % of control remaining
[7] = Well no.=6203, read-out: % of control remaining
[8] = Well no.=5181, read-out: % of control remaining
[9] = Well no.=6349, read-out: % of control remaining
[10] = read-out: % of control remaining, Well no.=149
[11] = Well no.=2119, read-out: % of control remaining
[12] = Well no.=305, read-out: % of control remaining
[13] = Well no.=154, read-out: % of control remaining
[14] = Well no.=2397, read-out: % of control remaining
[15] = Well no.=594, read-out: % of control remaining
[16] = Well no.=6679, read-out: % of control remaining
[17] = Well no.=7687, read-out: % of control remaining
[18] = Well no.=750, read-out: % of control remaining
[19] = Well no.=6723, read-out: % of control remaining
[20] = Well no.=426, read-out: % of control remaining
[21] = Well no.=6729, read-out: % of control remaining
[22] = Well no.=6876, read-out: % of control remaining
[23] = Well no.=1237, read-out: % of control remaining
[24] = Well no.=4432, read-out: % of control remaining
[25] = Well no.=1428, read-out: % of control remaining
[26] = Well no.=608, read-out: % of control remaining
[27] = Well no.=6739, read-out: % of control remaining
[28] = Well no.=776, read-out: % of control remaining
[29] = Well no.=3342, read-out: % of control remaining
[30] = Well no.=4357, read-out: % of control remaining
[31] = Well no.=998, read-out: % of control remaining
[32] = Well no.=5961, read-out: % of control remaining
[33] = Well no.=5465, read-out: % of control remaining
[34] = Well no.=5941, read-out: % of control remaining
[35] = Well no.=5924, read-out: % of control remaining
[36] = Well no.=5662, read-out: % of control remaining
[37] = Well no.=5793, read-out: % of control remaining
[38] = Well no.=2540, read-out: % of control remaining

c1ccc(C(OC2CCN(CCCc3nn[nH]n3)CC2)c2ccccc2)cc1 [4-(benzhydryloxy)-1-[3-(1H-tetraazol-5-yl)propyl]piperidine]
remaining activity at 1.25 µM [1, 3]: 95.5%
remaining activity at 3.75 µM [2, 3]: 93.3%

CC(=O)NCCCC(=O)O [4-Acetamidobutanoic acid]
remaining activity at 1.25 µM [1, 4]: 110%
remaining activity at 3.75 µM [2, 4]: 106%

Nc1ccc2c3c(cccc13)C(=O)NC2=O [4-Amino-1,8-naphthalimide]
remaining activity at 1.25 µM [1, 5]: 103%
remaining activity at 3.75 µM [2, 5]: 92.9%

N=C(N)c1ccc(N)cc1 [4-Aminobenzamidine dihydrochloride]
remaining activity at 1.25 µM [1, 6]: 91.8%
remaining activity at 3.75 µM [2, 6]: 92.5%

Nc1ccc(C(=O)O)cc1 [4-Aminobenzoic acid]
remaining activity at 1.25 µM [1, 7]: 97.3%
remaining activity at 3.75 µM [2, 7]: 101%

Nc1ccc(C(=O)NCC(=O)O)cc1 [4-Aminohippuric Acid]
remaining activity at 1.25 µM [1, 8]: 95.9%
remaining activity at 1.25 µM [1, 9]: 105%
remaining activity at 3.75 µM [2, 8]: 95.3%
remaining activity at 3.75 µM [2, 9]: 103%

Nc1ccncc1 [4-Aminopyridine]
remaining activity at 1.25 µM [1, 10]: 104%
remaining activity at 3.75 µM [2, 10]: 104%

Nc1ccc(C(=O)O)c(O)c1 [4-Aminosalicylic acid]
remaining activity at 1.25 µM [1, 11]: 99.3%
remaining activity at 3.75 µM [2, 11]: 101%

C[C@]12CCC(=O)C(O)=C1CC[C@@H]1[C@@H]2CC[C@]2(C)C(=O)CC[C@@H]12 [4-Androsten-4-ol-3,17-dione]
remaining activity at 1.25 µM [1, 12]: 96.5%
remaining activity at 3.75 µM [2, 12]: 93.5%

C[C@]12CCC(=O)C=C1CC[C@@H]1[C@@H]2CC[C@]2(C)C(=O)CC[C@@H]12 [4-Androstene-3,17-dione]
remaining activity at 1.25 µM [1, 13]: 103%
remaining activity at 3.75 µM [2, 13]: 99.2%

Cc1ncc2ccccc2c1C#N [4-Cyano-3-methylisoquinoline]
remaining activity at 1.25 µM [1, 14]: 97.4%
remaining activity at 3.75 µM [2, 14]: 95.8%

O=C(OC1CCN(CCCl)CC1)C(c1ccccc1)c1ccccc1 [4-Diphenylacetoxy-N-(2-chloroethyl)piperidine hydrochloride]
remaining activity at 1.25 µM [1, 15]: 92.6%
remaining activity at 3.75 µM [2, 15]: 92.6%

CCc1ccc(O)cc1 [4-Ethylphenol]
remaining activity at 1.25 µM [1, 16]: 103%
remaining activity at 3.75 µM [2, 16]: 104%

NC(N)=NCCCC(=O)O [4-Guanidinobutanoic acid]
remaining activity at 1.25 µM [1, 17]: 108%
remaining activity at 3.75 µM [2, 17]: 106%

COc1cc(CC(=O)O)ccc1O [4-Hydroxy-3-methoxyphenylacetic acid]
remaining activity at 1.25 µM [1, 18]: 99.7%
remaining activity at 3.75 µM [2, 18]: 97.2%

Cc1cc(C(=O)O)ccc1O [4-Hydroxy-3-methylbenzoic acid]
remaining activity at 1.25 µM [1, 19]: 100%
remaining activity at 3.75 µM [2, 19]: 101%

NNC(=O)c1ccc(O)cc1 [4-Hydroxybenzhydrazide]
remaining activity at 1.25 µM [1, 20]: 97.3%
remaining activity at 3.75 µM [2, 20]: 97%

O=C(O)c1ccc(O)cc1 [4-Hydroxybenzoic acid]
remaining activity at 1.25 µM [1, 21]: 108%
remaining activity at 3.75 µM [2, 21]: 105%

OCc1ccc(O)cc1 [4-Hydroxybenzyl alcohol]
remaining activity at 1.25 µM [1, 22]: 98.2%
remaining activity at 3.75 µM [2, 22]: 95.1%

NCCc1ccc(O)cc1 [4-Hydroxyphenethylamine hydrochloride]
remaining activity at 1.25 µM [1, 23]: 101%
remaining activity at 3.75 µM [2, 23]: 102%

CC1=C(/C=C/C(C)=C/C=C/C(C)=C/C(=O)Nc2ccc(O)cc2)C(C)(C)CCC1 [4-Hydroxyphenylretinamide]
remaining activity at 1.25 µM [1, 24]: 99%
remaining activity at 3.75 µM [2, 24]: 97.3%

O=C(O)/C=C/c1cnc[nH]1 [4-Imidazoleacrylic acid]
remaining activity at 1.25 µM [1, 25]: 95.1%
remaining activity at 3.75 µM [2, 25]: 98.1%

OCc1cnc[nH]1 [4-Imidazolemethanol hydrochloride]
remaining activity at 1.25 µM [1, 26]: 97.2%
remaining activity at 3.75 µM [2, 26]: 96.7%

Cc1ccc(O)c(O)c1 [4-Methylcatechol]
remaining activity at 1.25 µM [1, 27]: 106%
remaining activity at 3.75 µM [2, 27]: 108%

Cc1cn[nH]c1 [4-Methylpyrazole hydrochloride]
remaining activity at 1.25 µM [1, 28]: 98.4%
remaining activity at 3.75 µM [2, 28]: 99.2%

Cc1cc(=O)oc2cc(O)ccc12 [4-Methylumbelliferone]
remaining activity at 1.25 µM [1, 29]: 94%
remaining activity at 3.75 µM [2, 29]: 91.9%

CCCCCCCCCCOCCC(=O)O [4-Oxatetradecanoic acid]
remaining activity at 1.25 µM [1, 30]: 101%
remaining activity at 3.75 µM [2, 30]: 107%

N#Cc1c(-c2ccccc2)no[n+]1[O-] [4-Phenyl-3-furoxancarbonitrile]
remaining activity at 1.25 µM [1, 31]: 97.8%
remaining activity at 3.75 µM [2, 31]: 97.8%

Nc1nccc(-c2c(-c3ccc(F)cc3)ncn2C2CCCCC2)n1 [4-[1-cyclohexyl-4-(4-fluorophenyl)-1H-imidazol-5-yl]-2-pyrimidinamine dihydrochloride]
remaining activity at 1.25 µM [1, 32]: 102%
remaining activity at 3.75 µM [2, 32]: 102%

C[C@H](c1ccc(F)cc1CCCC(=O)O)N(c1cc(F)ccc1F)S(=O)(=O)c1ccc(Cl)cc1 [4-[2-((1R)-1-{[(4-chlorophenyl)sulfonyl]-2,5-difluoroanilino}ethyl)-5-fluorophenyl]butanoic acid]
remaining activity at 1.25 µM [1, 33]: 98.3%
remaining activity at 3.75 µM [2, 33]: 102%

O=C1CSc2ccccc2N1Cc1cccc(C(F)(F)F)c1 [4-[3-(trifluoromethyl)benzyl]-2H-1,4-benzothiazin-3(4H)-one]
remaining activity at 1.25 µM [1, 34]: 104%
remaining activity at 3.75 µM [2, 34]: 103%

Cc1ccc(C)c(-c2cc(C(F)(F)F)nn2-c2ccc(S(N)(=O)=O)cc2)c1 [4-[5-(2,5-dimethylphenyl)-3-(trifluoromethyl)-1H-pyrazol-1-yl]benzenesulfonamide]
remaining activity at 1.25 µM [1, 35]: 97.9%
remaining activity at 3.75 µM [2, 35]: 89.1%

CC(=O)N1CCN(C(=O)/C=C/c2ccc(Sc3ccccc3C(C)C)c([N+](=O)[O-])c2)CC1 [4-[(1E)-3-(4-acetyl-1-piperazinyl)-3-oxo-1-propenyl]-2-nitrophenyl 2-isopropylphenyl sulfide]
remaining activity at 1.25 µM [1, 36]: 94.9%
remaining activity at 3.75 µM [2, 36]: 94.5%

CC1(C)C=Cc2c(ccc3c2OC[C@@H](c2ccc(O)cc2O)C3)O1 [4-[(3R)-8,8-dimethyl-3,4-dihydro-2H,8H-pyrano[2,3-f]chromen-3-yl]-1,3-benzenediol]
remaining activity at 1.25 µM [1, 37]: 100%
remaining activity at 3.75 µM [2, 37]: 104%

COc1cc2ncnc(Nc3ccc(Cl)cc3F)c2cc1OC [4-[(4'-Chloro-2'-fluoro)phenylamino]-6,7-dimethoxyquinazoline hydrochloride]
remaining activity at 1.25 µM [1, 38]: 96.4%
remaining activity at 3.75 µM [2, 38]: 98.1%
